# Source: patent US20210290648A1, “Potentiation of B-Lactam Antibiotics and B-Lactam/B-Lactamase Inhibitor Combinations Against Multidrug and Extensively Drug-Resistant Pseudomonas Aeruginosa Using Non-Ribosomal Tobramycin-Cyclam Conjugates” (University of Manitoba, priority 2018, published 2021)
# Assays:
# PA 101885 = assay: Checkerboard combination study / MIC; type: cell-based, Pseudomonas aeruginosa
# PA 100036 = assay: Checkerboard combination study / MIC; type: cell-based, Pseudomonas aeruginosa
# PA 91433 = assay: Checkerboard combination study / MIC; type: cell-based, Pseudomonas aeruginosa; settings: PA 91433
# PA 260 = assay: Checkerboard combination study / MIC; type: cell-based, Pseudomonas aeruginosa
# PA 259 = assay: Checkerboard combination study / MIC; type: cell-based, Pseudomonas aeruginosa
# PA 264 = assay: Checkerboard combination study / MIC; type: cell-based, Pseudomonas aeruginosa
# [1] = test system: Galleria mellonella larvae; assay: Galleria mellonella tolerability study; settings: 100 mg/kg and 200 mg/kg injected alone; after 48 h
# Description: In vitro and in vivo discordances have been observed in antimicrobial chemotherapy, thus, therapeutic efficacy may not necessarily be reliably extrapolated based on in vitro data alone. […] Colistin (100 mg/kg), an antibiotic well known for its toxicity towards eukaryotes, served as a positive control for this experiment while PBS served as negative control. […] Survivability was scored for a total of 4 days.
# In vivo larvae-infection model. In vivo synergistic effects were determined using Galleria mellonella infection model, as previously described (20). Briefly, worms were purchased from The Worm Lady® Live Feeder (ON, Canada), stored in their natural habitat at 16° C., and used within 10 days of delivery. The worms (average weight of 250 mg) were used for tolerability and efficacy studies. Tolerability study was performed by injecting 10 μL of antimicrobial agents only at concentrations equivalent to 100 mg/kg or 200 mg/kg. The worms (ten in each group) were incubated at 37° C. and monitored for 96 h. […] Overnight grown culture of respective MDR P. aeruginosa isolate was standardized to 0.5 McFarland standard and diluted in PBS to a final concentration of […]. 10 μL of this solution (5 CFU) was injected into each worm and incubated for 3 h at 37° C. […] Worms treated with 10 μL PBS or high concentrations of test antibiotics served as negative and positive control, respectively. The worms were incubated at 37° C. in Petri dishes lined with filter paper and scored for survivability every 6 h for up to 48 h. This experiment was repeated to give a total of thirty worms (n=30) in each case. Survival data curves were plotted using Kaplan-Meier survival analysis.
# PA 101243 = assay: Checkerboard combination study / MIC; type: cell-based, Pseudomonas aeruginosa; settings: PA 101243
# [2] = test system: MDR/XDR P. aeruginosa clinical isolates; assay: MIC and checkerboard, panel of clinical isolates; type: cell-based, Pseudomonas aeruginosa; settings: antibiotic + compound 2 (8.7 μM); resistant P. aeruginosa isolates
# [3] = MIC of antibiotic combined with compound 2
smiles,measurement,setting,value
C[C@H]1[C@H](NC(=O)/C(=N\OC(C)(C)C(=O)O)c2csc(N)n2)C(=O)N1S(=O)(=O)O [Aztreonam],MICCombination (antibiotic),PA 101885; [3],0.5 µg/mL
same,FICI,PA 101885; antibiotic + compound 2,<0.09
same,MICAntibiotic,PA 101885; antibiotic alone,16 µg/mL
same,FICAntibiotic,PA 101885; with compound 2,0.031
same,MICCombination (antibiotic),PA 100036; [3],2 µg/mL
same,FICI,PA 100036; antibiotic + compound 2,<0.16
same,MICAntibiotic,PA 100036; antibiotic alone,16 µg/mL
same,MICCombination (antibiotic),PA 91433; [3],512 µg/mL
same,FICI,PA 91433; antibiotic + compound 2,<1.06
same,MICAntibiotic,PA 91433; antibiotic alone,512 µg/mL
same,FICAntibiotic,PA 91433; with compound 2,1.000
same,MICCombination (antibiotic),PA 260; [3],8 µg/mL
same,FICI,PA 260; antibiotic + compound 2,<0.19
same,MICAntibiotic,PA 260; antibiotic alone,64 µg/mL
same,MICCombination (antibiotic),PA 259; [3],4 µg/mL
same,FICI,PA 259; antibiotic + compound 2,<0.19
same,MICAntibiotic,PA 259; antibiotic alone,32 µg/mL
same,MICCombination (antibiotic),PA 264; [3],16 µg/mL
same,FICI,PA 264; antibiotic + compound 2,<0.28
same,MICAntibiotic,PA 264; antibiotic alone,64 µg/mL
same,FICAntibiotic,PA 264; with compound 2,0.250
same,survival of larvae,[1],100%
same,MICCombination (antibiotic),PA 101243; [3],8 µg/mL
same,FICI,PA 101243; antibiotic + compound 2,<0.26
same,MICAntibiotic,PA 101243; antibiotic alone,32 µg/mL
same,FICAntibiotic,PA 101243; with compound 2,0.250
same,resistant isolates reaching CLSI clinical breakpoint,[2],seven out of nine
